Measurements as given in patent US9670156B2, “Crystal form III of (S)-oxiracetam, preparation method and use thereof” (Chongqing Runze Pharmaceutical Company Limited, priority 2013, dated 2017).

What was measured:
[1] = set-up: species or system Beagle dogs; details: dog, in vivo; for AUCO-∞ / T1/2 / Tmax / bioavailability of crystal form I and III compared: po
From the text: Base on the existing LC-MS method for determination of (S)-oxiracetam in a biological sample, 6 healthy Beagle dogs are used in the experiment. They are weighted 8-10 kg, and divided into two groups of three. They are used to observe the bioavailability of the different crystal forms of (S)-oxiracetam after oral administration to the dogs. The pharmacokinetics of the crystal forms I and III of (S)-oxiracetam in the dogs are studied. And oxiracetam is used as reference preparation to evaluate whether the bioavailability of crystal forms I and III are equivalent. The bioequivalence is evaluated by calculating the pharmacokinetic parameters. Results: The main pharmacokinetic parameters of the crystal forms I and III of (S)-oxiracetam in the Beagle dogs are as follows: Tmax are (1.561±0.398) and (1.498±0.3988), Cmax are (198.076±80.462) and (186.205±50.321) […], respectively; T1/2 are (0.915±0.125) and (0.909±0.112) h, respectively; and AUCO-∞ are (456.268±85.567) and (436.364±75.204) […], respectively.

[2] = set-up: species or system Beagle dogs; details: dog, in vivo, po
[3] = Dissolution in aqueous solution compared with other crystal forms; type: physicochemical; details: compared with other crystal forms of (S)-oxiracetam

Question: For `NC(=O)CN1C[C@@H](O)CC1=O` [crystal form I, (S)-4-hydroxy-2-oxo-1-pyrrolidine acetamide], which “AUCO-∞” value [1] is on record?
Answer: 456268 ± 85567 µg·h/mL

Question: What about the T1/2 [1] of the same compound?
Answer: 54.9 ± 7.5 min

Question: What about the Tmax [1] of the same compound?
Answer: 1.561±0.398

Question: And the “bioavailability of crystal form I and III compared” value [1]?
Answer: exactly the same

Question: And the Cmax [2]?
Answer: 198 ± 80.5 µg/mL

Question: With `NC(=O)CN1C[C@@H](O)CC1=O` [crystal form III, (S)-4-hydroxy-2-oxo-1-pyrrolidine acetamide] as the compound, how does the “dissolution in aqueous solution” value [3] read?
Answer: dissolves fast

Question: And the bioavailability [1]?
Answer: high bioavailability

Question: And the “AUCO-∞” value [1]?
Answer: 436364 ± 75204 µg·h/mL

Question: And the T1/2 [1]?
Answer: 54.5 ± 6.72 min

Question: What about the Tmax [1] of the same compound?
Answer: 1.498±0.3988

Question: And the “bioavailability of crystal form I and III compared” value [1]?
Answer: exactly the same

Question: And the Cmax [2]?
Answer: 186 ± 50.3 µg/mL
